pEC50: −log10 of the molar value.

The assay addresses T1, human GPR119 (Homo sapiens, UniProt Q8TDV5).
T1 construct: expression vector for human GPR119 cDNA (Acc. No. NP_848566); expressed in transfected cells
T1 sequence (Q8TDV5 1-335): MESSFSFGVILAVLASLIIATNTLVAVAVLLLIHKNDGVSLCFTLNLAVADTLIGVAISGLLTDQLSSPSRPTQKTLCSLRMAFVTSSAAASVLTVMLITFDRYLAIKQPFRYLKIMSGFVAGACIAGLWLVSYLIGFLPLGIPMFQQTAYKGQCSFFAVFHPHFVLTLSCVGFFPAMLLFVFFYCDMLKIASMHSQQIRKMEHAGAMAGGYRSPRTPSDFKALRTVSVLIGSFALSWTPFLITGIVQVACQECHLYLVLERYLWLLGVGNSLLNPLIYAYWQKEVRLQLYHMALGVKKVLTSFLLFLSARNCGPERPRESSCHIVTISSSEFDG
Kind of assay: AlphaScreen cAMP assay in Min-6/hGPR119 cells (activation of GPR119, intracellular cAMP). Conditions: MIN6 cells stably transfected with human GPR119; cAMP by AlphaScreen after 45 minutes incubation at room temperature. The format is cell-based. As to the method:
The compounds of formula I according to the invention modulate the activity of the G-protein-coupled receptor GPR119. The effect of the compounds on the activation of GPR119 and on the stimulation of intracellular cAMP concentration is determined using the AlphaScreen cAMP Assay Kit (Cat.No.#6760625R) made by PerkinElmer.
MIN6 cells [Miyazaki J et al. Endocrinology. 1990 July; 127(1):126-32] are stably transfected with an expression vector for human GPR119 cDNA (Acc. No. NP_848566). Min-6/hGPR119 cells are cultured in DMEM, 10% FBS, 50 μM β-mercaptoethanol, 0.3 mg/mL Geniticin, 2 mM GlutaMAX at 37° C. 5% CO2. For the assay, the cells are seeded in Optiplates (white, 384-well, 160W— barcoded, TC, sterile with lid, Cat.No.#6007688 (Perkin Elmer); 10000 cells/well; 50 μl). The plates covered with lids are then incubated for 24 hours at 37° C./5% CO2. After the medium is aspirated from the wells completely, 10 μl of the test compound are added, the compounds are diluted using stimulating buffer (140 mM NaCl, 3.6 mM KCl, 0.5 mM NaH2PO4, 0.5 mM MgSO4, 1.5 mM CaCl2, 10 mM Hepes, 5 mM NaHCO3; pH 7.4. 0.5 mM IBMX and 0.1% BSA, the final DMSO concentration is 1%). After 45 minutes incubation at room temperature (approx. 20° C.), the cAMP concentrations are determined using the AlphaScreen cAMP Assay Kit (Cat.No.#6760625R from PerkinElmer).
On the technique in general: Bead proximity is the source of the signal in Alpha formats.
In general, pEC50 refers to the EC50 on a negative log10 scale, so that one unit is a factor of ten. A lower pEC50 goes with a high EC50. With `CC(C)OC(=O)N1CCC(C2Cc3cc(-c4ccc(C(=O)N5CCOCC5)cc4)ccc3O2)CC1` (stereo not drawn) [Example 149], the negative logarithm of the EC50 (pEC50) is 8.05.
`CCS(=O)(=O)N1CCN(c2cc3c(cn2)OC(C2CCN(C(=O)OC(C)(C)C)CC2)C3)CC1` (stereo not drawn) [Example 98] gave a pEC50 of 7.82.
As for `CC(O)CNC(=O)Cc1ccc(-c2ccc3c(c2)CC(C2CCN(C(=O)OC(C)C)CC2)O3)cc1` (stereo not drawn) [Example 130], the figure is 6.80; as for `CC1(OC(=O)N2CCC([C@]3(C)Cc4cc(-c5ccc(S(C)(=O)=O)cc5)ncc4O3)CC2)CC1` [Example 85, (S)-4-[5-(4-Methanesulfonyl-phenyl)-2-methyl-2,3-dihydro-furo[2,3-c]pyridin-2-yl]-piperidine-1-carboxylic acid 1-methyl-cyclopropyl ester], 8.15.
For `CC(C)(C)OC(=O)N1CCC(C2Cc3cc(-c4ccc(S(C)(=O)=O)cc4F)ncc3O2)CC1` (stereo not drawn) [Example 23, 4-[5-(2-Fluoro-4-methanesulfonyl-phenyl)-2,3-dihydro-furo[2,3-c]pyridin-2-yl]-piperidine-1-carboxylic acid tert-butyl ester] the value was 7.74; for `CC(C)(C)OC(=O)N1CCC(C2Cc3nc(N4CCN(S(C)(=O)=O)CC4)ncc3O2)CC1` (stereo not drawn) [Example 91, 4-[2-(4-Methanesulfonyl-piperazin-1-yl)-6,7-dihydro-furo[3,2-d]pyrimidin-6-yl]-piperidine-1-carboxylic acid tert-butyl ester], 6.22.
For `Cn1cc(-c2cc3c(cn2)OC(C2CCN(C(=O)OC(C)(C)C)CC2)C3)cn1` (stereo not drawn) [Example 68, 4-[5-(1-Methyl-1H-pyrazol-4-yl)-2,3-dihydro-furo[2,3-c]pyridin-2-yl]-piperidine-1-carboxylic acid tert-butyl ester] the value was 6.24.
On to `CC(C)(C)OC(=O)N1CCC(C2Cc3cc(-c4ccc(C(N)=O)cn4)ccc3O2)CC1` (stereo not drawn) [Example 40, 4-[5-(5-Carbamoyl-pyridin-2-yl)-2,3-dihydro-benzofuran-2-yl]-piperidine-1-carboxylic acid tert-butyl ester], for which the pEC50 was 6.80.
For `CC(C)OC(=O)N1CCC(C2Cc3cc(-c4ccc(CC(=O)NCC5COCCO5)cc4)ccc3O2)CC1` (stereo not drawn) [Example 138] the value was 6.56; for `CC(C)OC(=O)N1CCC(C2Cc3cc(-c4ccc(CC(=O)N(C)CC#N)cc4)ccc3O2)CC1` (stereo not drawn) [Example 160], 7.51.
For `CS(=O)(=O)c1ccc(-c2cc3c(cn2)OC(C2CCN(C(=O)OC4CCC4)CC2)C3)cc1` (stereo not drawn) [Example 24, 4-[5-(4-Methanesulfonyl-phenyl)-2,3-dihydro-furo[2,3-c]pyridin-2-yl]-piperidine-1-carboxylic acid cyclobutyl ester] the value was 7.77; for `CC(=O)Nc1ccc(-c2ccc3c(c2)CC(C2CCN(C(=O)OC(C)C)CC2)O3)c(C)n1` (stereo not drawn) [Example 163], 6.53.
As for `CC(C)(C)OC(=O)N1CCC(C2Cc3cc(N4CCN(S(=O)(=O)C5CC5)CC4)ncc3O2)CC1` (stereo not drawn) [Example 101, 4-[5-(4-Cyclopropanesulfonyl-piperazin-1-yl)-2,3-dihydro-furo[2,3-c]pyridin-2-yl]-piperidine-1-carboxylic acid tert-butyl ester], the figure is 7.64; as for `CC(C)OC(=O)N1CCC(C2Cc3cc(-c4ccc(C#N)cc4)ccc3O2)CC1` (stereo not drawn) [Example 4, 4-[5-(4-Cyano-phenyl)-2,3-dihydro-benzofuran-2-yl]-piperidine-1-carboxylic acid isopropyl ester], 6.70; as for `CC(C)OC(=O)N1CCC(C2Cc3cc(-c4ccc(C#N)c(F)c4)ccc3O2)CC1` (stereo not drawn) [Example 111], 6.82.
In turn, `CC(C)OC(=O)N1CCC(C2Cc3cc(-c4ccc(S(C)(=O)=O)nc4)ccc3O2)CC1` (stereo not drawn) [Example 2, 4-[5-(6-Methanesulfonyl-pyridin-3-yl)-2,3-dihydro-benzofuran-2-yl]-piperidine-1-carboxylic acid isopropyl ester] gave a pEC50 of 7.15.
As for `CC1(OC(=O)N2CCC(C3Cc4cc(-c5ccc(S(C)(=O)=O)cc5)ccc4O3)CC2)CC1` (stereo not drawn) [Example 17, 4-[5-(4-Methanesulfonyl-phenyl)-2,3-dihydro-benzofuran-2-yl]-piperidine-1-carboxylic acid 1-methyl-cyclopropyl ester], the figure is 7.34; as for `Cn1cc(-c2cc3c(cn2)OC(C2CCN(C(=O)OC(C)(C)C)CC2)C3)ccc1=O` (stereo not drawn) [Example 58, 4-[5-(1-Methyl-6-oxo-1,6-dihydro-pyridin-3-yl)-2,3-dihydro-furo[2,3-c]pyridin-2-yl]-piperidine-1-carboxylic acid tert-butyl ester], 6.88.
For `CC(C)OC(=O)N1CCC(C2Cc3cc(-c4ccc(CC(=O)NCc5ccccn5)cc4)ccc3O2)CC1` (stereo not drawn) [Example 158] the value was 6.63; for `CC(C)OC(=O)N1CCC(C2Cc3cc(-c4ccc(CC(=O)N5CCC(O)C5)cc4)ccc3O2)CC1` (stereo not drawn) [Example 132], 6.81; for `CCCS(=O)(=O)N1CCN(c2cc3c(cn2)OC(C2CCN(C(=O)OC(C)(C)C)CC2)C3)CC1` (stereo not drawn) [Example 100, 4-{5-[4-(Propane-1-sulfonyl)-piperazin-1-yl]-2,3-dihydro-furo[2,3-c]pyridin-2-yl}-piperidine-1-carboxylic acid ten-butyl ester], 8.05.
On to `CC(=O)Nc1ncc(-c2ccc3c(c2)CC(C2CCN(C(=O)OC(C)C)CC2)O3)s1` (stereo not drawn) [Example 177], for which the pEC50 was 6.70.
For `CC(C)OC(=O)N1CCC(C2Cc3cc(-c4ccc(C(F)(F)F)nc4)ccc3O2)CC1` (stereo not drawn) [Example 117] the value was 6.43; for `CC(C)(C)OC(=O)N1CCC(C2Cc3cc(-c4ccc(CS(C)(=O)=O)cc4F)ncc3O2)CC1` (stereo not drawn) [Example 35, 4-[5-(2-Fluoro-4-methanesulfonylmethyl-phenyl)-2,3-dihydro-furo[2,3-c]pyridin-2-yl]-piperidine-1-carboxylic acid tert-butyl ester], 7.77.
On to `CC(C)(C)OC(=O)N1CCC(C2Cc3cc(-c4ccc(S(C)(=O)=O)c(F)c4)ncc3O2)CC1` (stereo not drawn) [Example 34, 4-[5-(3-Fluoro-4-methanesulfonyl-phenyl)-2,3-dihydro-furo[2,3-c]pyridin-2-yl]-piperidine-1-carboxylic acid tert-butyl ester], for which the pEC50 was 8.05. Compared with the last molecule, the pEC50 is 0.28 log units higher.
For the molecule `CC1(OC(=O)N2CCC(C3Cc4cc(C5=CCN(S(C)(=O)=O)CC5)ncc4O3)CC2)CC1` (stereo not drawn) [Example 97, 4-[5-(1-Methanesulfonyl-1,2,3,6-tetrahydro-pyridin-4-yl)-2,3-dihydro-furo[2,3-c]pyridin-2-yl]-piperidine-1-carboxylic acid 1-methyl-cyclopropyl ester], the pEC50 is 8.15. The pEC50 values of the last two molecules are within 0.2 log units of each other.
As for `Cc1cc(S(C)(=O)=O)ccc1-c1ccc2c(c1)CC(C1CCN(C(=O)OC(C)C)CC1)O2` (stereo not drawn) [Example 10, 4-[5-(4-Methanesulfonyl-2-methyl-phenyl)-2,3-dihydro-benzofuran-2-yl]-piperidine-1-carboxylic acid isopropyl ester], the figure is 6.92; as for `CC(C)(C)OC(=O)N1CCC(C2Cc3cc(-c4ccnnc4)ccc3O2)CC1` (stereo not drawn) [Example 50, 4-(5-Pyridazin-4-yl-2,3-dihydro-benzofuran-2-yl)-piperidine-1-carboxylic acid tert-butyl ester], 6.79.
For `CC(C)(C)OC(=O)N1CCC(C2Cc3nc(-c4ccc(S(C)(=O)=O)cc4)ccc3O2)CC1` (stereo not drawn) [Example 13, 4-[5-(4-Methanesulfonyl-phenyl)-2,3-dihydro-furo[3,2-b]pyridin-2-yl]-piperidine-1-carboxylic acid tert-butyl ester] the value was 6.67.
For `CC(C)OC(=O)N1CCC(C2Cc3cc(-c4ccc(CC(=O)NCC5CCCO5)cc4)ccc3O2)CC1` (stereo not drawn) [Example 154] the value was 7.01.
As for `Cc1c(-c2ccc3c(c2)CC(C2CCN(C(=O)OC(C)C)CC2)O3)cnn1C` (stereo not drawn) [Example 165], the negative logarithm of the EC50 (pEC50) was 5.73. This pEC50 is 1.28 log units lower than that of the molecule before.
For `CC(C)(C)OC(=O)N1CCC(C2Cc3cc(-c4ccc(C#N)cc4)ncc3O2)CC1` (stereo not drawn) [Example 46, 4-[5-(4-Cyano-phenyl)-2,3-dihydro-furo[2,3-c]pyridin-2-yl]-piperidine-1-carboxylic acid tert-butyl ester] the value was 7.82; for `Cc1nn(C)cc1-c1ccc2c(c1)CC(C1CCN(C(=O)OC(C)C)CC1)O2` (stereo not drawn) [Example 171], 6.24.
